This note sets out measurements from US10010541B2, “Modulation of tissue transglutaminase activation in disease” (The Board of Trustees of the Leland Stanford Junior …, priority 2014, dated 2018).

The assay deals with proinflammatory cytokines IL-6, PAI-1 and MIP1α. In words: circulating proinflammatory cytokines in LPS-induced murine sepsis (ELISA). The format is in vivo, mice. How it is done: FIG. 3: The TG2 inhibitor CK996 reduces the proinflammatory cytokine load in septic mice at doses as low as 1.5 mg/kg: The graphs display the absolute circulating levels of the proinflammatory cytokines IL-6, PAI-1 and MIP1α in septic male BL6 mice as a function of the dose of intraperitoneally administered CK996 or ERW1041E. In each graph, the right y-axis depicts the relative levels of the respective cytokines over their background level in our control cohort. All septic mice in this study received lipopolysaccharide (LPS, 5 mg/kg i.v., at t=0) and either a TG2 inhibitor (CK996 or ERW1041E at 50, 15, 5.0 and 1.5 mg/kg i.p., at t=0 and 60 min) in vehicle (PBS with 5% DMSO, 2% Tween-80 and 2.5% hydroxypropyl-beta-cyclodextrin) or, for the septic control cohort, vehicle alone. An additional cohort defining the baseline cytokine levels received only intravenous vehicle and intraperitoneal inhibitor vehicle, respectively. At 3 hours the mice were euthanized and plasma collected in lithium heparin tubes. The levels of the respective proinflammatory cytokines were quantified using commercial ELISA kits according to the manufacturers' instructions. […]
Having established that intraperitoneal administration of CK996 could suppress TG2 activity in septic mice, we next sought to determine whether this pharmacologic intervention had any effect on the circulating levels of the key proinflammatory cytokines in sepsis. To this end, we administered CK996 in doses of 1.5, 5.0, 15 or 50 mg/kg intraperitoneally to septic mice (5 mg/kg LPS, iv) and measured the level of the proinflammatory cytokines IL-6, PAI-1 and MIP1α in plasma that was collected at 3 hours after infusion of LPS.
We therefore co-administered recombinant human thioredoxin protein (10 mg/kg, ip) along with CK996 (50 mg/kg, ip) to septic mice (5 mg/kg, iv) and quantified the load of proinflammatory cytokines as above.
Background: An ELISA detects its analyte on a solid surface through an enzyme-linked reagent.

As for `O=C(N[C@@H]1C[C@@H](C(=O)NC[C@@H]2CC(Br)=NO2)N(C(=O)OCc2cnc3ccccc3c2)C1)c1cccnc1` [Compound 5, (2S,4R)-quinolin-3-ylmethyl 2-((((S)-3-bromo-4,5-dihydroisoxazol-5-yl)methyl)carbamoyl)-4-(nicotinamido)pyrrolidine-1-carboxylate], the “circulating levels of IL-6, PAI-1 and MIP1α” value (septic mice (LPS 5 mg/kg iv), all doses tested (1.5, 5.0, 15 or 50 mg/kg ip), plasma at 3 hours) is given as “dramatically reduced”. Also, where the note is “septic mice, ip at t=0 and 60 min”, the “dose that reduces the proinflammatory cytokine load” value is ≤ 1.5 mg/kg.
